Where two headings read alike, the source gives them in different places.
Experiments:
[1] = system: HepG2 cells; conditions: read-out: IC50 (cytotoxicity in HepG2 cells); conventional oximes; cited from earlier work
[2] = system: HepG2 cells; conditions: from 15 min after simultaneous incubation with TBHP (IC50 concentration); oximes about 10-fold below IC50; cited from earlier work
[3] = system: HepG2 cells; experiment: Intracellular nonprotein disulfides (NP-SS-NP) by HPLC-UV; format: cell-based, human; conditions: IC50 concentration
Experimental: (§1) The culture medium was removed from a 25 cm^2 culture flask on the day of the experiment, and cells were washed twice with 3 mL of phosphate-buffered saline (PBS; GE Healthcare Life Sciences, South Logan, UT). Subsequently, 3 mL of a plain DMEM medium (negative control) and a DMEM medium containing TBHP (positive control) or individual oximes were added to each flask, and cells were incubated for 1, 4, and 24 h. The concentration of individual oxime and TBHP in the DMEM medium corresponded to the IC50 value. After incubation, the experimental medium was removed, and cells were washed with 3 mL of PBS and harvested by scraping. The resulting suspension was centrifuged at 220g and 21 °C for 5 min (Universal 320R centrifuge, Hettich, Tuttlingen, Germany). The supernatant was removed and dried cell pellets were stored at −80 °C. Each experiment was carried out in three independent replicates.
(§2) The cell pellets were thawed at room temperature, resuspended in 500 μL of ultrapure water (Millipore Purification System, Merck, Millipore, Darmstadt, Germany), and sonicated for 2 min (2 s cycle, amplitude 20%) in a Q500 homogenizer (QSONICA Sonicators, Newton). Then, the homogenate was divided into three parts: 250 μL for the determination of malondialdehyde (MDA), 100 μL for each determination of nonprotein thiols (NP-SH) and disulfides (NP-SS-NP), and 10 μL for the Bradford protein assay.
(§3) The HepG2 cell homogenate obtained, as described in Section 2.6, was processed for the determination of intracellular NP-SH and NP-SS-NP, according to Muckova et al.[11] The samples were analyzed using the HPLC system described above equipped with an SPD 20-AV Prominence UV/vis detector. The analysis was carried out on a Phenomenex LUNA C18 column (150 mm × 3 mm, 3 μm, 100 Å) protected with a Security Cartridge (4 mm × 2 mm, Phenomenex, Torrance) at 30 °C and a constant flow rate of 0.330 mL/using the mobile phase consisting of 0.9% aqueous FA (A) and ACN (B) under gradient conditions: 0–1 min 12% B, 1.1–2 min 12–55% B, 2–7 min 55% B, 7.1 min 55% B, and 7.1–10 min 12% B. The detector was set at 326 nm and the sample injection volume was 20 μL.

[4] = system: HepG2 cells; experiment: Intracellular nonprotein thiols (NP-SH) by HPLC-UV; format: cell-based, human; conditions: IC50 concentration
Experimental: as §1, §2, §3

[5] = system: HepG2 cells; experiment: Intracellular RONS detection with DHE fluorescent probe; format: cell-based, human; conditions: IC50 concentration; for increase of free radicals/RONS (DHE probe) vs negative control: 1 h incubation
Experimental: (§4) Two different fluorescent dyes, i.e., 2,7-dichlorodihydrofluorescein diacetate (DCFH-DA, Cayman Chemicals Company, Ann Arbor, MI) and dihydroethidium (DHE, Sigma-Aldrich, St. Louis, MO) were utilized for the determination of intracellular levels of RONS after 1, 4, and 24 h of incubation with tested oxime reactivators or TBHP (positive control). Cells incubated with oxime-free DMEM represented untreated control. After the incubation, the experimental medium was removed and replaced with a solution of DCFH-DA or DHE at concentrations of 20 and 5 μmol/L, respectively. The cells were subsequently incubated at 37 °C in a CO2 incubator for 45 min. Afterward, the fluorescence intensity of each well was measured using a Spark multimode microplate reader at an excitation wavelength of 485 nm for DCFH-DA or 528 nm for the DHE probe and an emission wavelength of 535 or 590 nm, respectively. Each experiment was carried out in triplicate and repeated three independent times.
(§5) The toxicological indices IC50 were calculated from control-subtracted triplicates using nonlinear regression (four parameters) using GraphPad Prism 9 software version 9.3.0 (GraphPad Software Inc., San Diego, CA). One-way analysis of variance (ANOVA) followed by Dunnetʼs multiple comparison test was used for RONS, MDA, NP-SH, and NP-SS-NP statistical analysis by GraphPad Prism 9 software, version 9.3.0. Data are expressed as means ± standard deviation (SD) of three independent measurements (n = 3). Significant differences between oxime-treated and untreated control groups (p ≤ 0.05) were marked by an asterisk (*).

[6] = system: HepG2 cells; experiment: Total intracellular MDA by LC-MS/MS; format: cell-based, human; conditions: IC50 concentration
[7] = system: HepG2 cells; experiment: Intracellular RONS detection with DCFH-DA fluorescent probe; format: cell-based, human; conditions: IC50 concentration
Experimental: as §4, §5

[8] = Colorimetric MTT cell viability assay, 24 h; conditions: human, HepG2 cells, IC50 (cytotoxicity, MTT assay), 24 h incubation
[9] = system: HepG2 cells; experiment: Flow cytometric detection of cell death (Annexin V & Dead Cell Assay); format: cell-based, human; conditions: IC50 concentration
Source text: 2. Flow cytometric detection of cell death
The microcapillary flow cytometry (Muse™ Cell Analyzer, Luminex, Austin, TX) was used to determine cell death.
This method is based on detecting externalization of phosphatidylserine on the surface of cells undergoing apoptosis.
The technique allows quantitative analysis of non-apoptotic, early apoptotic, late apoptotic, and necrotic cells. The reagent mixture also contains the membrane non-permeable dye 7-aminoactinomycin D. This component distinguishes necrotic and late apoptotic cells from the live and early apoptotic cells. The measurement of cell death was carried out according to manufacturer instructions after 1, 4, and 24 h incubation with tested oxime reactivators and with oxime-free medium as an untreated control. During the first day of the experiment, cells were seeded into a 24-well plate (TPP) with a density of […]. After the incubation, cells from each well were collected into the polystyrene tube (TPP) and centrifuged for 5 min at 1000 × g at room temperature. The supernatant was discarded. The cell suspensions […]
were prepared in fresh medium DMEM. Afterward 100 μL of cell suspension were mixed with the 100 μL of Muse™ Annexin V & Dead Cell Assay reagent, and the samples were incubated for 20 min at room temperature in the dark.
Per measurement, 5000 cells were analyzed. Each experiment was performed in triplicates and repeated three independent times. The concentration of K048, K074, K075, and K203 oximes and TBHP (positive control) used in […]
After 1 h of incubation (Figure S-1.) with tested oxime reactivators and TBHP as the positive control, the percentage […]
A significant change in the percentage of
The amount of early apoptotic cells
. On the other hand, the percentage of late apoptotic cells was […]
control cells. The count of late apoptotic cells enlarged by 7.74, 4.71 , 4.17, 4.13, and 3.20 %, respectively. The statistical differences were also found in the percentage of necrotic cells in this time interval. The highest increment […]
K048, K074, K075, and K203 groups when compared with control.
K075, and K203 treated groups, respectively, when compared with control. Finally, the percentage of necrotic cells […]
Fig. S-1 The percentage of intact (white column), early (light grey column), late apoptotic (dark grey column), and necrotic HepG2 cells (black column) determined using microcapillary flow cytometry after 1 h, 4 h and 24 h treatment with oxime acetylcholinesterase reactivators or TBHP (positive control). Control represents the cells incubated with an oxime-free culture medium. One-way analysis of variance (ANOVA) followed by Dunnetʼs multiple comparison test was used for statistical analysis by GraphPad Prism 9 software version 9.3.0. Data are expressed as means ± standard deviation (SD) of three independent measurements (n = 3). Significant differences between oxime-treated and untreated control groups (p ≤ 0.05) and marked by asterisk (*).
3. Stability of oximes in DMEM medium at 37 °C over 24 hours
The stability of oximes K048, K074, K075, and K203 in DMEM medium, with concentrations corresponding to their […]
UV, following the chromatographic conditions described by Vanova et al. (2021)13. The results over the tested time […]
Fig. S-2 Data are expressed in percentage as means ± standard deviation (SD) of three independent measurements […]

[10] = system: rat plasma; conditions: in vivo, 23 mg/kg; cited from earlier work
[11] = system: HepG2 cells; experiment: Colorimetric MTT cell viability assay, 24 h; conditions: read-out: IC50 (cytotoxicity, MTT assay), 24 h incubation

In the case of NC(=O)c1cc[n+](COC[n+]2ccccc2/C=N/O)cc1 [HI-6, asoxime], the IC50 [1] is listed as about 3000 µM.
For O/N=C/c1cc[n+](COC[n+]2ccc(/C=N/O)cc2)cc1 [LüH-6, obidoxime], the IC50 [1] is listed as about 4000 µM.
In the case of O/N=C/c1cc[n+](CCC[n+]2ccc(/C=N/O)cc2)cc1 [TMB-4, trimedoxime], the IC50 [1] is listed as about 22000 µM.
For O/N=C/c1cc[n+](C[n+]2ccc(/C=N/O)cc2)cc1 [MMB-4, methoxime], the IC50 [1] is given as about 1000 µM.
In the case of N[C@@H](CCC(=O)N[C@@H](CS)C(=O)NCC(=O)O)C(=O)O [reduced glutathione, glutathione, reference compound], the “reduction of ROS production” value [2] is listed as 87%.
For CC(C)(C)OO [TBHP, tert-butyl hydroperoxide, reference compound], the “increase in NP-SS-NP levels vs untreated control” value (“increase in NP-SS-NP levels” below) ([3]; 1 h) was 69.6%, the “increase in NP-SS-NP levels” value ([3]; 4 h) was 119% and the “increase in NP-SS-NP levels” value ([3]; 24 h) was 166%. The “decrease in NP-SH levels vs untreated control” value (“decrease in NP-SH levels” for short) ([4]; 1 h) was 24.6%, the “decrease in NP-SH levels” value ([4]; 4 h) was 45.0% and the “decrease in NP-SH levels” value ([4]; 24 h) was 53.1%. The “increase of free radicals/RONS (DHE probe) vs negative control” value [5] was 30.7%, the “increase of RONS (DHE probe) vs negative control” value ([5]; 4 h incubation) was 111% and the “increase of MDA levels vs untreated control” value ([6]; 4 h incubation) was 36.1%. For the same compound, the “increase of MDA levels vs untreated control” value ([6]; 24 h exposure) was 96.6%, the “increase of RONS (DCFH-DA probe) vs negative control” value (shortened to “increase of RONS (DCFH-DA probe)”) ([7]; 1 h incubation) was 16.7% and the “decrease of RONS (DCFH-DA probe) vs negative control” value ([7]; 24 h incubation) was 47.6%. The IC50 at 24 h [8] was 130 µM, the “decrease in percentage of intact (live) cells vs control” value ([9]; 1 h) was about 11.6% and the “increase in late apoptotic cells vs control” value ([9]; 1 h) was 7.74%. For the same compound, the “increase in necrotic cells vs control” value ([9]; 1 h) was 3.24%, the “decrease in percentage of live cells vs control” value ([9]; 4 h) was 14.6% and the “increase in early apoptotic cells vs control” value ([9]; 4 h) was 1.02%. For the same compound, the “increase in late apoptotic cells vs control” value ([9]; 4 h) was 9.79%, the “increase in necrotic cell population vs control” value ([9]; 4 h) was 3.77% and the “decrease in percentage of intact cells vs control” value ([9]; 24 h) was 42.7%. The “increase in early apoptotic cells vs control” value ([9]; 24 h) was 7.42%, the “increase in late apoptotic cells vs control” value ([9]; 24 h) was 31.6% and the “increase in necrotic cells vs control” value ([9]; 24 h) was 3.66%.
For NC(=O)c1cc[n+](C/C=C/C[n+]2ccc(C=NO)cc2)cc1.[Br-].[Br-] [K203, 4-carbamoyl-1-((2E)-4-(4-((hydroxyimino)methyl)pyridin-1-ium-1-yl)but-2-en-1-yl)pyridin-1-ium dibromide], the “resulting NP-SS-NP levels (in words)” value ([3]; within the 24 h time frame) was “insignificant”, the “decrease in NP-SH levels” value ([4]; 1 h) was 17.4% and the “decrease in NP-SH levels” value ([4]; 24 h) was 12.1%. The “increase of free radicals/RONS (DHE probe) vs negative control” value [5] was 8.5%, the “increase of RONS (DHE probe) vs negative control” value ([5]; 24 h incubation) was 22.1% and the “resulting MDA levels (in words)” value ([6]; within the 24 h time frame) was “insignificant”. For the same compound, the “low-molecular-weight antioxidants (LMWAs) in plasma” value [10] was “increase”, the “increase of RONS (DCFH-DA probe)” value ([7]; 1 h incubation) was 39.2% and the “increase of RONS (DCFH-DA probe)” value ([7]; 4 h incubation) was 39.2%. The “increase of RONS (DCFH-DA probe)” value ([7]; 24 h incubation) was 22.8%, the IC50 [11] was 2050 µM and the “decrease in percentage of intact (live) cells vs control” value ([9]; 1 h) was about 8.43%. For the same compound, the “increase in early apoptotic cells vs control” value ([9]; 1 h) was about 1.51%, the “increase in late apoptotic cells vs control” value ([9]; 1 h) was 4.13% and the “decrease in percentage of live cells vs control” value ([9]; 4 h) was 8.8%. For the same compound, the “increase in late apoptotic cells vs control” value ([9]; 4 h) was 4.24%, the “increase in necrotic cell population vs control” value ([9]; 4 h) was 1.74% and the “decrease in percentage of intact cells vs control” value ([9]; 24 h) was 46.6%. For the same compound, the “increase in early apoptotic cells vs control” value ([9]; 24 h) was 13.3%, the “increase in late apoptotic cells vs control” value ([9]; 24 h) was 32.9% and the “reduction of ROS production” value [2] was 98%.

— publication PMC10731658 (Chemical Research in Toxicology, 2023)
